The values below come from paper PMC10189658 (Journal of inorganic biochemistry, 2023).

The Kd is a measure of binding affinity in units of concentration. A low value points to a tighter complex.

The target of this test is T1, human heme oxygenase-1 (hHO-1) (Homo sapiens, UniProt P09601).
T1 sequence (P09601 1-288): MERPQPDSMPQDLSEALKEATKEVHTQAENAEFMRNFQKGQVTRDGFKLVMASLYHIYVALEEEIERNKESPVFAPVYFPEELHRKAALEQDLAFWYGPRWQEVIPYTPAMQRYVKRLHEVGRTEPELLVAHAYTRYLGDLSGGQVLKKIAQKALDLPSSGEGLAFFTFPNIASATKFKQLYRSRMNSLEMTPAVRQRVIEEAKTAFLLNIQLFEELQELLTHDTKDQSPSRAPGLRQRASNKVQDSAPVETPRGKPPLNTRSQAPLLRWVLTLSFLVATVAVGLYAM
The test is described as follows: UV-Vis Soret equilibrium binding titration.

Regarding `Brc1ccc(CCC2(Cn3ccnc3)OCCO2)cc1` [OB-24], binding was characterised by a dissociation constant (Kd) of 4.46 ± 0.8 µM.
